Numbers after ± are expanded uncertainties.
Conditions: 298 K; 101.33 kPa; Crystal; SIGMATEST 2.069 (Foerster) testing instrument - complex impedance measurements

electrical conductivity: 6.107e+07 ± 610000 S/m
Structure (SMILES): [Ag] [silver]

From the NIST ThermoML archive (doi:10.1016/j.tca.2019.01.016)
